Experimental data: US20260234136A1, “ISOXAZOLIDINES AS RIPK1 INHIBITORS AND USE THEREOF” (GENZYME CORPORATION, priority 2023, published 2026)
pIC50: −log10 of the molar value. ≈ marks a conversion by molar mass, not a printed value.

Experiments:
U937 cells = test: Cellular assay in U937 cells to measure the activity of RIPK1-inhibitors on cell death (necroptosis); type: cell-based; conditions: Homo sapiens, U-937, 50 μM zVAD.fmk and 100 ng/ml recombinant human TNFα, overnight (18 to 24 hrs), MTS readout
Procedure: Absorbance of formazan was read at 490 nm. The inhibitory activity of the test compound was quantified in a concentration response curve (CRC) experiment.
Compounds were obtained as 10 mM stock solutions and were diluted 1 to 10 volumes with DMSO to yield a 1 mM solution. From this solution 2 μl were diluted with 998 μl growth medium.
U937 cells were cultured in RPMI1640 Glutamax and 10% heat inactivated FBS. […] 50 μl of compound dilutions, as described in Cellular assay in U937 cells, were added and the cell suspension incubated overnight (18 to 24 hrs) at 37° C., 5% CO2 in a humidified atmosphere (95% rH).
CellTiter 96 Aqueous reagent was mixed (100 μl PMS (phenazine methosulfate) solution/2 ml MTS (3-(4,5-[…])-5-(3-carboxymethoxyphenyl)-2-(4-sulfophenyl)-2H-tetrazolium, inner salt) solution) and 20 μl were added per well. After 4 hrs incubation at 37° C. (5% CO2 95% rH) optical density was measured at 490 nm on a microplate reader (Tecan Infinite M1000).
The % inhibition is expressed as percentage of the maximal inhibition value obtained in the absence of TNFα/zVAD.fmc.

physchem = conditions: 50 mM phosphate buffer, 25 °C, pH 7.4, aqueous buffer, thermodynamic from solid

SMILES	pIC50 (U937 cells)	solubility at 16 h (physchem) [µM]
Cc1ccc([C@@H]2CCON2C(=O)C2CCN(c3cc(-n4ccnc4C)ncn3)CC23CC3)cn1 (mixture of isomers) [Example 33, [5-[6-(2-methylimidazol-1-yl)pyrimidin-4-yl]-5-azaspiro[2.5]octan-8-yl]-[(3S)-3-(6-methylpyridin-3-yl)-1,2-oxazolidin-2-yl]methanone]	7.79	> 1090
Cc1ccc([C@@H]2CCON2C(=O)C2CCN(c3cc(-c4ccnn4C)ncn3)CC23CC3)cn1 (mixture of isomers) [Example 34, [5-[6-(2-methylpyrazol-3-yl)pyrimidin-4-yl]-5-azaspiro[2.5]octan-8-yl]-[(3S)-3-(6-methylpyridin-3-yl)-1,2-oxazolidin-2-yl]methanone]	7.28	> 1090
Cc1ccc([C@@H]2CCON2C(=O)[C@@H]2CCN(c3cc(-n4ccnc4C)ncn3)CC23CC3)cn1 (single isomer, unassigned) [Example 78]	7.49	> 1090
Cc1ccc([C@@H]2CCON2C(=O)[C@H]2CCN(c3cc(-n4ccnc4C)ncn3)CC23CC3)cn1 (single isomer, unassigned) [Example 79]		> 1090
O=C1OCCN1c1ccnc(N2CCC(C(=O)N3OCC[C@H]3c3cnccn3)CC2)n1 [Example 2, (S)-3-(2-(4-(3-(pyrazin-2-yl)isoxazolidine-2-carbonyl)piperidin-1-yl)pyrimidin-4-yl)oxazolidin-2-one]	7.30	> 1180
O=C1CCCN1c1nc(N2CCC(C(=O)N3OCC[C@H]3c3cnccn3)CC2)ncc1F [Example 6, 1-[5-fluoro-2-[4-[(3S)-3-pyrazin-2-ylisoxazolidine-2-carbonyl]-1-piperidyl]pyrimidin-4-yl]pyrrolidin-2-one]	8.10	> 1130
Cc1ccc([C@@H]2CCON2C(=O)C2CCN(c3ncnc(-c4ccnn4C)n3)CC2)cn1 [Example 8]	8.52	328 (≈ 142 µg/mL)
Cc1cnn(-c2ccnc(N3CCC(C(=O)N4OCC[C@H]4c4ccc(C)nc4)CC3)n2)c1 [Example 9, [1-[4-(4-methylpyrazol-1-yl)pyrimidin-2-yl]-4-piperidyl]-[(3S)-3-(6-methyl-3-pyridyl)isoxazolidin-2-yl]methanone]	7.54	173 (≈ 74.9 µg/mL)
Cc1ccc([C@@H]2CCON2C(=O)C2CCN(c3ncc(F)c(-c4ccnn4C)n3)CC2)cn1 [Example 19, [1-[5-fluoro-4-(2-methylpyrazol-3-yl)pyrimidin-2-yl]-4-piperidyl]-[(3S)-3-(6-methyl-3-pyridyl)isoxazolidin-2-yl]methanone]		7.1 (≈ 3.21 µg/mL)
Cc1ncc([C@@H]2CCON2C(=O)C2CCN(c3nccc(N4CCC5(CC5)C4=O)n3)CC2)cc1F [Example 61, 5-[2-[4-[(3S)-3-(5-fluoro-6-methylpyridin-3-yl)-1,2-oxazolidine-2-carbonyl]piperidin-1-yl]pyrimidin-4-yl]-5-azaspiro[2.4]heptan-4-one]	7.49	
CN1CCN(c2ccnc(N3CCC(C(=O)N4OCC[C@H]4c4cncc(F)c4)CC3)n2)C1=O [Example 62, 1-[2-[4-[(3S)-3-(5-fluoropyridin-3-yl)-1,2-oxazolidine-2-carbonyl]piperidin-1-yl]pyrimidin-4-yl]-3-methylimidazolidin-2-one]	7.39	
Cc1ccc([C@@H]2CCON2C(=O)[C@@H]2CCN(c3nccc(N4CCOCC4=O)n3)CC23CC3)cn1 [Example 63, 4-[2-[(8R)-8-[(3S)-3-(6-methylpyridin-3-yl)-1,2-oxazolidine-2-carbonyl]-5-azaspiro[2.5]octan-5-yl]pyrimidin-4-yl]morpholin-3-one]	7.36	
Cc1nccn1-c1nc(N2CCC(C(=O)N3OCC[C@H]3c3cncc(F)c3)CC2)ncc1F [Example 64, [1-[5-fluoro-4-(2-methylimidazol-1-yl)pyrimidin-2-yl]piperidin-4-yl]-[(3S)-3-(5-fluoropyridin-3-yl)-1,2-oxazolidin-2-yl]methanone]	9.00	
Cc1ccc([C@@H]2CCON2C(=O)C2CCN(c3nccc(N4CCCC(F)(F)C4=O)n3)CC2)cn1 [Example 66, 3,3-difluoro-1-[2-[4-[(3S)-3-(6-methylpyridin-3-yl)-1,2-oxazolidine-2-carbonyl]piperidin-1-yl]pyrimidin-4-yl]piperidin-2-one]	5.46	
Cc1ccc([C@@H]2CCON2C(=O)C2CCN(c3nc(-c4ncco4)ncc3F)CC2)cn1 [Example 67, [1-[5-fluoro-2-(1,3-oxazol-2-yl)pyrimidin-4-yl]piperidin-4-yl]-[(3S)-3-(6-methylpyridin-3-yl)-1,2-oxazolidin-2-yl]methanone]	6.87	
Cc1ncc([C@@H]2CCON2C(=O)C2CCN(c3ncc(F)c(N4CCC5(CC5)C4=O)n3)CC2)cc1F [Example 68, 5-[5-fluoro-2-[4-[(3S)-3-(5-fluoro-6-methylpyridin-3-yl)-1,2-oxazolidine-2-carbonyl]piperidin-1-yl]pyrimidin-4-yl]-5-azaspiro[2.4]heptan-4-one]	5.00	
Cc1ccc([C@@H]2CCON2C(=O)C2CCN(c3nccc(N4CCC5(CC5)C4=O)n3)CC2)cn1 [Example 70, 5-[2-[4-[(3S)-3-(6-methylpyridin-3-yl)-1,2-oxazolidine-2-carbonyl]piperidin-1-yl]pyrimidin-4-yl]-5-azaspiro[2.4]heptan-4-one]	6.97	
O=C(C1CCN(c2nccc(N3CCCC4(CC4)C3=O)n2)CC1)N1OCC[C@H]1c1cncc(F)c1 [Example 72, 5-[2-[4-[(3S)-3-(5-fluoropyridin-3-yl)-1,2-oxazolidine-2-carbonyl]piperidin-1-yl]pyrimidin-4-yl]-5-azaspiro[2.5]octan-4-one]	7.24	
Cc1ccc([C@@H]2CCON2C(=O)C2CCN(c3nccc(N4CCC(F)(F)C4=O)n3)CC2)cn1 [Example 73, 3,3-difluoro-1-[2-[4-[(3S)-3-(6-methylpyridin-3-yl)-1,2-oxazolidine-2-carbonyl]piperidin-1-yl]pyrimidin-4-yl]pyrrolidin-2-one]	6.26	
Cc1cncc([C@@H]2CCON2C(=O)C2CCN(c3nccc(N4CCC(F)(F)C4=O)n3)CC2)c1 [Example 74, 3,3-difluoro-1-[2-[4-[(3S)-3-(5-methylpyridin-3-yl)-1,2-oxazolidine-2-carbonyl]piperidin-1-yl]pyrimidin-4-yl]pyrrolidin-2-one]	6.76	
Cc1cncc([C@@H]2CCON2C(=O)C2CCN(c3nccc(N4CCCC(F)(F)C4=O)n3)CC2)c1 [Example 76, 3,3-difluoro-1-[2-[4-[(3S)-3-(5-methylpyridin-3-yl)-1,2-oxazolidine-2-carbonyl]piperidin-1-yl]pyrimidin-4-yl]piperidin-2-one]	6.31	
Cc1ccc([C@@H]2CCON2C(=O)[C@H]2CCN(c3cc(-c4ccnn4C)ncn3)CC23CC3)cn1 [Example 80, [5-[6-(2-methylpyrazol-3-yl)pyrimidin-4-yl]-5-azaspiro[2.5]octan-8-yl]-[(3S)-3-(6-methylpyridin-3-yl)-1,2-oxazolidin-2-yl]methanone]		> 1090
Cc1ccc([C@@H]2CCON2C(=O)[C@@H]2CCN(c3ccnc(N4CCCC4=O)n3)CC23CC3)cn1 [Example 85, 1-[4-[(8R)-8-[(3S)-3-(6-methylpyridin-3-yl)-1,2-oxazolidine-2-carbonyl]-5-azaspiro[2.5]octan-5-yl]pyrimidin-2-yl]pyrrolidin-2-one]	6.29	
O=C1CCCN1c1cc(N2CCC(C(=O)N3OCC[C@H]3c3cncc(F)c3)CC2)ncn1 [Example 86, 1-[6-[4-[(3S)-3-(5-fluoropyridin-3-yl)-1,2-oxazolidine-2-carbonyl]piperidin-1-yl]pyrimidin-4-yl]pyrrolidin-2-one]	6.11	
Cc1ccc([C@@H]2CCON2C(=O)C2CCN(c3ccnc(N4CCCC4=O)n3)CC2)cn1 [Example 87, 1-[4-[4-[(3S)-3-(6-methylpyridin-3-yl)-1,2-oxazolidine-2-carbonyl]piperidin-1-yl]pyrimidin-2-yl]pyrrolidin-2-one]	< 5.00	
Cc1ncc([C@@H]2CCON2C(=O)C2CCN(c3nccc(N4C(=O)CCC4(C)C)n3)CC2)cc1F [Example 89, 1-[2-[4-[(3S)-3-(5-fluoro-6-methylpyridin-3-yl)-1,2-oxazolidine-2-carbonyl]piperidin-1-yl]pyrimidin-4-yl]-5,5-dimethylpyrrolidin-2-one]	6.49	
Cc1ccc([C@@H]2CCON2C(=O)C2CCN(c3ccnc(N4CCCC5(CC5)C4=O)n3)CC2)cn1 [Example 90, 5-[4-[4-[(3S)-3-(6-methylpyridin-3-yl)-1,2-oxazolidine-2-carbonyl]piperidin-1-yl]pyrimidin-2-yl]-5-azaspiro[2.5]octan-4-one]	5.35	
Cc1nc([C@@H]2CCON2C(=O)C2CCN(c3nccc(N4CCCC4=O)n3)CC2)cs1 [Example 92, 1-[2-[4-[(3S)-3-(2-methyl-1,3-thiazol-4-yl)-1,2-oxazolidine-2-carbonyl]piperidin-1-yl]pyrimidin-4-yl]pyrrolidin-2-one]	7.74	
Cc1ncc([C@@H]2CCON2C(=O)C2CCN(c3nccc(C4COC4)n3)CC2)cc1F [Example 101, [(3S)-3-(5-fluoro-6-methylpyridin-3-yl)-1,2-oxazolidin-2-yl]-[1-[4-(oxetan-3-yl)pyrimidin-2-yl]piperidin-4-yl]methanone]	5.59	
